This note sets out measurements from ChEMBL document CHEMBL1126462, “CP-99,711: a non-peptide glucagon receptor antagonist” (Bioorg Med Chem Lett, 1992).

Where only a bound is given, the exact number is not on record here.

For assay [1], the species on record is Rattus norvegicus. Put plainly: Inhibitory concentration against glucagon receptor -stimulated cAMP production in rat liver homogenates. Type of assay: functional.
The species entered for assay [2] is Rattus norvegicus. Put plainly: Tested for its ability to increase cAMP production (in the absence of glucagon) in rat liver homogenates; no measurable agonist activity. The format is functional.
A further assay addresses Glucagon receptor (Rattus norvegicus, UniProt P30082). Put plainly: Tested against glucagon receptor for its ability to displace radiolabeled ([125I]-glucagon) in […] liver.

Glucagon receptor, sequence (P30082 whole entry): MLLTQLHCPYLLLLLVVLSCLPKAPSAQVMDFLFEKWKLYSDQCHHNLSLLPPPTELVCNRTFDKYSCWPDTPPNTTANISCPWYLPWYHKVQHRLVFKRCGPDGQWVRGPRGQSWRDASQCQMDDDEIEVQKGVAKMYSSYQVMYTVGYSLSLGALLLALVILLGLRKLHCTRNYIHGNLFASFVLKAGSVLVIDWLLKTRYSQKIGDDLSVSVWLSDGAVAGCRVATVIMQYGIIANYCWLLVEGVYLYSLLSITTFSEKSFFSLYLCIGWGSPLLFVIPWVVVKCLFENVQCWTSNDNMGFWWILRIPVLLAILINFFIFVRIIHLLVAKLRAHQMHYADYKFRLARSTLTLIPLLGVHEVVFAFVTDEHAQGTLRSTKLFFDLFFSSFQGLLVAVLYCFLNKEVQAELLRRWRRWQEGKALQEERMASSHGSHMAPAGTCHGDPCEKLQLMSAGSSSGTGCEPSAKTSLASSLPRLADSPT

Take `CN(C)CCCN(C)c1nc2cc(Cl)c(Cl)cc2nc1/C=C/c1ccccc1`: the IC50 (as a rule, the concentration needed to halve the response being measured) in the assay listed under Rattus norvegicus [1] is 7 µM; in the assay filed under Rattus norvegicus [2] it was above 32 µM; at Glucagon receptor, 4 µM.
